Assay results from patent US20070060605A1, “Compositions and methods for inhibiting platelet activation and thrombosis” (priority 2001, published 2007).
Read-outs that look alike come from different tables or passages of the source.

Tests used:
platelets [1] = experiment: Platelet aggregation (aggregometer); type: cell-based, human; conditions: for IC50: Homo sapiens, Platelet
Experimental: Platelet aggregation profiling is a standard methodology, generally performed with an instrument adapted for that express purpose, for example, a Platelet Aggregation Profiler (BioData, Horsham, Pa.). The assays can generally be performed according to the instructions of the manufacturer. As exemplary conditions, 400 μl of PRP are incubated with inhibitor for 15 minutes at room temperature. The sample is then incubated for 3 minutes at 37° C. in the Platelet Aggregation Profiler. The instrument is calibrated with platelet poor plasma serving as a blank. A baseline tracing is established by monitoring the light transmittance of PRP being stirred at 1200 rpm. Aggregation is initiated by the addition of SFLLR (200 μM) and the percent of platelet aggregation is measured by the change in light transmittance for 6 minutes following addition of SFLLR.

platelet GPIIbIIIa = experiment: SFLLR-induced GPIIbIIIa activation (PAC-1 antibody, flow cytometry); type: cell-based, human; conditions: PAC-1 antibodies
Experimental: In order to assay platelet activation by cell surface marker expression, fresh PRP is isolated from donors who have not ingested aspirin for two weeks prior to donation. PRP (40 μl) is incubated with known or suspected inhibitor in DMSO or DMSO alone for 15 min. The sample is then incubated with the indicated agonist (e.g., SFLLR) for 10 min. Following incubation of the sample with the indicated agonist, 10 μl of reaction mixture is transferred to 5 μl of phycoerythrin (PE)-conjugated AC 1.2 anti-P-selectin antibody (for assessment of P-selectin surface expression) or fluorescein isothiocyanate (FITC)-conjugated PAC-1 antibody (for assessment of GPIIbIIIa activation). PBS (500 μl) is added to the sample after a 20 min incubation and the platelets are analyzed immediately by flow cytometry. Flow cytometry can be performed using, for example, a Becton-Dickinson FACSCalibur flow cytometer or its equivalent. Fluorescent channels are set at logarithmic gain. Ten thousand particles are acquired for each sample. A 530/30 band pass filter is used for FL-1 fluorescence. A 585/42 band pass filter is used for FL-2 fluorescence. FITC is measured in the FL-1 channel and PE is measured in the FL-2 channel. Data are analyzed using, for example, CellQuest software on a Macintosh PowerPC, or their equivalents.
Compounds were also tested by flow cytometry for the inhibition of SFLLR-induced GPIIbIIIa activation and P-selectin expression. In these experiments, freshly obtained PRP was prepared from healthy volunteers who had not ingested aspirin for two weeks prior to donation. Forty μl of PRP was incubated with inhibitor in DMSO or DMSO alone for 15 min. The sample was then incubated with the indicated agonist for 10 min. Following incubation of the sample with the indicated agonist, 10 μl of reaction mixture was transferred to 5 μl of PE-conjugated AC1.2 anti-P-selectin antibody (for assessment of P-selectin surface expression) or FITC-conjugated PAC-1 antibody (for assessment of GPIIbIIIa activation). PBS (500 μl) was added to the sample after a 20 min incubation and the platelets were analyzed immediately by flow cytometry. Flow cytometry was performed using a Becton-Dickinson FACSCalibur flow cytometer. Fluorescent channels were set at logarithmic gain. Ten thousand particles were acquired for each sample. A 530/30 band pass filter was used for FL-1 fluorescence. A 585/42 band pass filter was used for FL-2 fluorescence. FITC was measured in the FL-1 channel and PE was measured in the FL-2 channel. Data were analyzed using CellQuest software on a MacIntosh PowerPC.

[2] = test system: PGE1-induced cAMP levels in platelets; experiment: Augmentation of PGE1-induced cAMP levels in platelets; type: cell-based, human; conditions: no single concentration
Experimental: One frequent target of anti-platelet agents is phosphodiesterase III (PDE III). […] The assay is performed as described by Liao et al., 1998, Eur J Pharmacol 349,107-114, incorporated herein by reference. Briefly, aliquots of PRP are exposed to increasing concentrations of the agent for 20 minutes. The PRP is then challenged with 1 μM PGE1 for 2 min The reaction is stopped by adding 10 mM EDTA, followed immediately by boiling for 2 min. The mixture is cooled to 4° C. and the precipitated protein is pelleted. cAMP content in the supernatant is quantitated using an enzyme immunoassay kit (Pharmacia-Amersham, N.J.) according to the instructions of the manufacturer.
In order to assess whether the compounds useful according to the invention might act through inhibition phosphodiesterase III, each was tested for its effect on PGE1-induced cAMP increase. Determination of platelet cAMP levels was performed as described by Liao et al., 1998, supra. Aliquots of PRP were exposed to increasing concentrations of the indicated compounds for 20 min. PRP was then challenged with 1 μM PGE1 for 2 min. The reaction was stopped with the addition of 10 mM EDTA followed immediately by boiling for 2 min. The mixture was then cooled to 4° C. and the precipitated protein was pelleted. Cyclic AMP content in the supernatant was then quantified using an enzyme immunoassay kit (Pharmacia-Amersham, N.J.) according to the instructions of the manufacturer.

recombinant human PDE2 = recombinant human PDE2 (Homo sapiens, UniProt O00408); experiment: Phosphodiesterase inhibition, PDE2; type: biochemical; conditions: up to 1 μM
Chain of recombinant human PDE2 (O00408 whole entry): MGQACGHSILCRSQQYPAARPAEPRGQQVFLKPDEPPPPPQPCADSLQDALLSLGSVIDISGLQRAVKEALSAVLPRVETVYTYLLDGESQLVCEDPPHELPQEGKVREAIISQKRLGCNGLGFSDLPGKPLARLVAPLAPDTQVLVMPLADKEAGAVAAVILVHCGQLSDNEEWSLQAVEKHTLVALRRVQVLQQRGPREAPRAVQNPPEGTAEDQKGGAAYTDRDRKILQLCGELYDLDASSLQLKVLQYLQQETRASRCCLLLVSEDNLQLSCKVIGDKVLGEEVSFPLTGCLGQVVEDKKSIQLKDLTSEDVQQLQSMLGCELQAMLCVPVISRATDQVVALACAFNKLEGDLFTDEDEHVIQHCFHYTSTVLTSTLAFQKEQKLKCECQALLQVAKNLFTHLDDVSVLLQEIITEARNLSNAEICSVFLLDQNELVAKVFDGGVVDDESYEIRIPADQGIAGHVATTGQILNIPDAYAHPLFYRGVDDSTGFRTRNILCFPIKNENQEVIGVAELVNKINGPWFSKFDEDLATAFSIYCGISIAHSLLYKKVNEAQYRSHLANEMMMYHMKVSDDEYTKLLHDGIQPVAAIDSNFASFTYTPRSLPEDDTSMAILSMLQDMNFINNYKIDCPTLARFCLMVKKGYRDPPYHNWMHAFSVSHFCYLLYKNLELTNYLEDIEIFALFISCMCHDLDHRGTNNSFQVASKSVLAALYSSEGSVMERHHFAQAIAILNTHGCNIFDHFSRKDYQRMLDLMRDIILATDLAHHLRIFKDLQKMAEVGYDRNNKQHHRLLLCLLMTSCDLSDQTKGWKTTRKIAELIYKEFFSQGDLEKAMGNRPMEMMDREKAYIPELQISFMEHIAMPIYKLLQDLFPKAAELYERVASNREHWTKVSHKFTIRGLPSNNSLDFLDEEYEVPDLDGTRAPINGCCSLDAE
Experimental: (§1) Intracellular cAMP generated by adenylyl cyclase in platelets is actively hydrolyzed by phosphodiesterase. […] Human platelets express PDE2, PDE3, and PDE5. Therefore, the compound was tested for its inhibitory effect on these phosphodiesterases using methods as described in Example 3.

human platelet PDE5 = molecular target: T1, human platelet PDE5 (Homo sapiens, UniProt O76074); experiment: Phosphodiesterase inhibition, PDE5; type: biochemical; conditions: up to 1 μM
T1 construct: human platelet PDE5; from tissue; host or cells: human platelets
Experimental: as §1

platelets [3] = experiment: F-actin assembly (FITC-phalloidin, flow cytometry); type: cell-based, human; conditions: agonist SFLLR
Excerpt: To determine whether or not the effects of the pyridazinone compound were limited to inhibition of alpha-granule secretion, the ability of the compound to inhibit F-actin assembly and αIIbβ3 activation was examined. F-actin assembly was detected using FITC-phalloidin and quantified by flow cytometry (Winokur et al., 1995, Blood 85, 1796-804; Oda et al., 1992, Blood 79, 920-7).

[4] = listed as Pyridazinone compound
[5] = listed as pyridazinone compound

| SMILES | IC50 (platelets [1]; agonist U-46619, read-out: IC50 Platelet Aggregation Induced by U-46619) [µM] | IC50 (platelets [1]; agonist Collagen, read-out: IC50 Platelet Aggregation Induced by Collagen) [µM] | IC50 (platelets [1]; agonist Epinephrine, read-out: IC50 Platelet Aggregation Induced by Epinephrine) [µM] | IC50 (platelets [1]; agonist SFLLRN, read-out: IC50 Platelet Aggregation Induced by SFLLRN) [µM] | IC50 (platelets [1]; agonists SFLLRN, epinephrine, read-out: IC50 SFLLRN- and epinephrine-induced platelet aggregation) [µM] | Inhibition of U46619- and collagen-induced platelet aggregation (platelets [1]; agonists U46619, collagen) | SFLLR-induced αIIbβ3 activation (platelet GPIIbIIIa) | Effect on PGE1-stimulated cAMP levels in platelets [2] | Effect on PGE1-stimulated cAMP levels in platelets [2, 4] | Inhibition of recombinant human PDE2 (recombinant human PDE2; [4]) | Inhibition of recombinant human PDE2 (recombinant human PDE2; [5]) | Inhibition of human platelet PDE5 (human platelet PDE5; [4]) | Inhibition of human platelet PDE5 (human platelet PDE5; [5]) | SFLLR-induced platelet aggregation (platelets [1]; agonist SFLLR) | SFLLR-induced F-actin assembly / cytoskeleton rearrangement (platelets [3]) |
| --- | --- | --- | --- | --- | --- | --- | --- | --- | --- | --- | --- | --- | --- | --- | --- |
| CCCCCn1c2c(c(=N)c3ccccc31)CCC2 [JF081204{5C}] | 400 | > 200 | 5 | 2 | < 5 | not effective |  |  |  |  |  |  |  |  |  |
| CC1CC(=O)NN=C1c1ccc(N)c([N+](=O)[O-])c1 (stereo not drawn) [6-(4-Amino-3-nitro-phenyl)-5-methyl-4,5-dihydro-2H-pyridazin-3-one] |  |  |  |  |  |  | inhibited | augments | augment | No significant inhibition | little inhibition | No significant inhibition | little inhibition | potent inhibitor | interferes |
